Assay: gradient 5% acetonitrile 3 min, to 50% in 2 min, to 85% in 15 min, held 3 min, 100 µL/min
Details: column: Zorbax Extend-C18 2.1 x 50 mm; eluents: water / acetonitrile, 0.1% formic acid
Method in brief: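 Retention time was recorded from adduct peaks, which were picked computationally and each inspected manually. Pure standards ran in mixtures of ~100 molecules on HPLC coupled to a quadrupole time-of-flight mass spectrometer, in positive and negative ionization mode, through a Zorbax Extend-C18 column (2.1 × 50 mm, 1.8 μm) at 100 μL/min. Eluents were water and acetonitrile, each with 0.1% formic acid.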

With O=C(NCC(O)c1ccsc1)c1ccc2nsnc2c1 (stereo not drawn) the RP-LC retention time was 659 s.
CCOC(=O)CSc1nc2c(sc3ccccc32)c(=O)n1CCc1c[nH]c2ccccc12 gave an RP-LC retention time of 1220 s.
CN(C)CC1CN(C(=O)c2cc(F)ccc2F)CC12CCOCC2 (stereo not drawn) showed an RP-LC retention time of 572 s.
For Cc1ccccc1C1CC(=O)c2c(C)nc(N3CCN(CCO)CC3)nc2C1 (stereo not drawn), the RP-LC retention time was 656 s.
O=C(Nc1ccc(F)cc1)c1c(O)c2cccnc2n(-c2ccc(F)cc2)c1=O gave an RP-LC retention time of 1200 s.
Molecule O=C(NC1CC1)c1[nH]c2ccccc2c1N1CCCC1=O has an RP-LC retention time of 653 s.
For CC(C)CCNC(=O)N1CC(c2nc(-c3ccccc3)no2)C2(CCOCC2)C1 (stereo not drawn), the RP-LC retention time was 914 s.
For O=C(CN1C(=O)c2cccnc2Sc2ccccc21)NCCc1c[nH]c2ccccc12, the RP-LC retention time was 773 s.
In the case of O=C(NCc1cccnc1)C1CCN(c2ncnc3c2oc2ccccc23)CC1, the RP-LC retention time is reported as 583 s.
With COc1ccc(NC(=O)CSc2nccc3c2ccn3Cc2ccc(F)cc2)cc1OC the RP-LC retention time was 788 s.
For COc1ccc(C2(C(=O)Nc3cc(-c4cccs4)no3)CC2)cc1, the RP-LC retention time was 1060 s.
O=C(Cn1ncc2c(c1=O)N(C1CC1)C(=O)CS2)N1CCCc2ccccc21 showed an RP-LC retention time of 745 s.
COCc1cc(=O)n(CC(=O)Nc2cc(C)cc(C)c2)c(N2CCOCC2)n1 showed an RP-LC retention time of 893 s.
Molecule COc1ccc(OC)c(CNC(=O)CCc2c(-c3ccc(Br)cc3)nc3ccccn23)c1 has an RP-LC retention time of 693 s.
In the case of Cc1ccc(Cl)cc1-n1ccnc(NC(=O)Nc2ccccc2)c1=O, the RP-LC retention time is reported as 1020 s.
Cc1c(CN2CCC[C@H]2c2nc(-c3ccccc3)n[nH]2)cnn1C gave an RP-LC retention time of 584 s.
For CCn1cc(-c2nc(CC(=O)Nc3ccc(F)cc3Cl)cs2)c2cccnc21, the RP-LC retention time was 720 s.
CC1CCN(S(=O)(=O)c2ccc3c(c2)CCCC(=O)N3CC(=O)N(C)C2CCCCC2)CC1 gave an RP-LC retention time of 1040 s.
Work on CCc1nc(-n2cccc2)sc1C(=O)NC1CCC(C)CC1 (stereo not drawn) yielded an RP-LC retention time of 1180 s.
With Cc1ccc(Cl)cc1N1CCN(c2cc(C(=O)O)c3cc(NC(=O)C(C)C)ccc3n2)CC1 the RP-LC retention time was 746 s.
Molecule CC(C)C(NC(=O)Cc1ccccc1F)C(=O)Nc1nc2ccccc2[nH]1 (stereo not drawn) has an RP-LC retention time of 692 s.
COC1CCC12CCN(C(=O)Nc1ccc3c(c1)OCCO3)CC2 (stereo not drawn) gave an RP-LC retention time of 742 s.
With CCc1ccc(CCN2C(=O)c3ccccc3C2=O)nc1 the RP-LC retention time was 667 s.
Molecule Cc1cccc(NC(=O)N2CCC(CCN)CC2)c1 has an RP-LC retention time of 586 s.
With C=CCn1c(=O)c2ccccc2n(Cc2nc(-c3ccccc3OC)no2)c1=O the RP-LC retention time was 940 s.
With COc1ccc(C(=O)NCc2nnc(SCC(=O)N3CCCc4ccccc43)o2)cc1 the RP-LC retention time was 677 s.
Work on COc1ccc(NC(=O)c2cccn2Cc2noc(C)n2)cc1 yielded an RP-LC retention time of 776 s.
Molecule Cc1noc2nc(C)n(CC(=O)NCc3ccc(Cl)cc3)c(=O)c12 has an RP-LC retention time of 783 s.
In the case of COc1cc(NC(=O)c2sc(-n3cccc3)nc2C(C)C)cc(OC)c1, the RP-LC retention time is reported as 1210 s.
In the case of O=C(CN1CCN(Cc2ccccc2)C1=O)NCc1ccccc1Br, the RP-LC retention time is reported as 824 s.
For CCc1nc(-n2cccc2)sc1C(=O)Nc1cc(C)ccc1F, the RP-LC retention time was 1180 s.
Molecule Nc1cccc2c1CN(C1CCC(=O)NC1=O)C2=O (stereo not drawn) has an RP-LC retention time of 595 s.
Work on COc1ccc(N2CCN(C(=O)c3cc(NC(=O)C(C)C)cc4nc(C)ccc34)CC2)cc1 yielded an RP-LC retention time of 636 s.
In the case of NC(N)=NC(=O)c1nc(Cl)c(N2CCCCCC2)nc1N, the RP-LC retention time is reported as 758 s.
Work on Cc1nn(C(C)C(=O)NCCCN2CCc3ccccc3C2)c(=O)c2c(C)n(-c3ccccc3)nc12 (stereo not drawn) yielded an RP-LC retention time of 690 s.
With COc1ccc2sc(Nc3nnc(-c4ccc5c(c4)OCCO5)o3)nc2c1 the RP-LC retention time was 802 s.
CCN1C(=O)COc2ccc(-c3noc(-c4cccc5[nH]ccc45)n3)cc21 gave an RP-LC retention time of 998 s.
For O=C(NCc1ccc(F)cc1Cl)c1csc(C(=O)N2CCCC2)n1, the RP-LC retention time was 864 s.
Molecule Cc1ccc2c(c1)OCC(=O)N2Cc1nc(-c2ccc(Cl)cc2)no1 has an RP-LC retention time of 1140 s.
In the case of CCc1nc2ccc(-c3noc(-c4ccc(NC(C)=O)cc4)n3)cc2n1CC, the RP-LC retention time is reported as 630 s.
Work on CCOC(=O)c1cn(Cc2cccc(C)c2)c2nc(C)ccc2c1=O yielded an RP-LC retention time of 925 s.
In the case of O=C(Cc1cccs1)NCC1CCN(C(=O)Oc2ccccc2)CC1, the RP-LC retention time is reported as 635 s.
With CN(C)c1ccc(C(CNC(=O)c2ccc(Br)o2)N2CCCC2)cc1 (stereo not drawn) the RP-LC retention time was 572 s.
With CCOC(=O)c1nc(Nc2ccc(C(=O)OC)cc2)c2ccccc2n1 the RP-LC retention time was 841 s.
Molecule CNC(=O)c1cc(-c2cccc(F)c2)nc2ccccc12 has an RP-LC retention time of 850 s.
For CCN(CC)CCNc1ncnc2c1cnn2-c1ccc(C)cc1, the RP-LC retention time was 642 s.
Work on CCCc1noc(-c2ccc(=O)n(CC(=O)Nc3cc(C)cc(C)c3)c2)n1 yielded an RP-LC retention time of 902 s.
O=S(=O)(c1ccc(F)c(F)c1)N1CCCC(Cn2c(C3CC3)nc3cccnc32)C1 (stereo not drawn) showed an RP-LC retention time of 782 s.
For Cn1cccc1C(=O)NCc1cnoc1-c1ccc(F)cc1, the RP-LC retention time was 860 s.
Molecule COc1ccc(N2CCN(C(=O)c3cc(S(=O)(=O)N4CCC(C)CC4)cn3C)CC2)cc1 has an RP-LC retention time of 923 s.
For O=C(CN1CC(c2nc(-c3cccc(Cl)c3)no2)C1)NCC1CCCO1 (stereo not drawn), the RP-LC retention time was 590 s.
Molecule COc1ccc(-c2noc(-c3nn(-c4cccc(F)c4)ccc3=O)n2)cc1OC has an RP-LC retention time of 804 s.
For CNC(=O)c1nc(C(C)(C)NC(=O)c2ccnn2C)nc2c1OCO2, the RP-LC retention time was 603 s.
Molecule O=C(NC1CC1)c1ccnc(N2CCNC(c3ccccc3)C2)c1 (stereo not drawn) has an RP-LC retention time of 583 s.
For O=C(NC1CC1)C1(c2ccc(F)cc2)CC1, the RP-LC retention time was 779 s.
Molecule Cc1ccc(C)c(N2CCN(c3ccnc(SCC(=O)NCc4ccccc4)n3)CC2)c1 has an RP-LC retention time of 858 s.
Cc1ccc(N2CCC(NC(=O)c3ccc(C#N)cc3)C2=O)cc1 (stereo not drawn) showed an RP-LC retention time of 798 s.
O=C(NCCC1=CCCCC1)C(=O)NCC1CCN(S(=O)(=O)C2CC2)CC1 showed an RP-LC retention time of 826 s.
For CCOc1ccccc1C(=O)Nc1cccn2cnnc12, the RP-LC retention time was 772 s.
With CC(=O)c1ccc(NC(=O)N(C)C)cc1 the RP-LC retention time was 588 s.
Work on CCOc1ccc(-c2nc(-c3ccc4c(c3)N(CC)C(=O)CO4)no2)cc1OCC yielded an RP-LC retention time of 1200 s.
With O=C(NCc1ccccc1)C1=C2CCCN2c2ccc(F)cc2S1(=O)=O the RP-LC retention time was 836 s.
Molecule Cc1ccc(NS(=O)(=O)c2cc(-c3[nH]ncc3C(=O)N3CCCCC3)oc2C)cc1F has an RP-LC retention time of 806 s.
CCOc1ccccc1CN1C[C@@H]2C(=O)N(C)C(=O)[C@@H]2C1 showed an RP-LC retention time of 595 s.
COc1ccc(OC)c(CNC(=O)c2nc(N3CCCC3)c3ccccc3n2)c1 gave an RP-LC retention time of 707 s.
In the case of O=C(Cc1cccs1)Nc1onc2c1CCCC2, the RP-LC retention time is reported as 730 s.
Cc1ccc(-n2nnnc2-c2cccnc2)cc1 gave an RP-LC retention time of 649 s.
In the case of O=C(NCc1cccs1)c1ccc2c(c1)ncn2CCN1CCCC1, the RP-LC retention time is reported as 577 s.
In the case of CCOCCCNC(=O)C1c2ccccc2C(=O)N(C2CCCC2)C1c1cccs1 (stereo not drawn), the RP-LC retention time is reported as 882 s.
CCOc1ccccc1NS(=O)(=O)c1ccc2c(c1)C(=O)N(C)c1ncccc1O2 showed an RP-LC retention time of 941 s.
In the case of O=C(Cc1c[nH]c2ccccc12)N1CC(n2cc(COCC3CC3)nn2)C1, the RP-LC retention time is reported as 704 s.
Molecule COc1ccc(-c2noc(C3CCCN3C(=O)c3ccsc3)n2)cc1OC (stereo not drawn) has an RP-LC retention time of 834 s.
COc1ccc(NC(=O)Cn2cccc2-c2nnc(-c3ccccc3)o2)cc1Cl gave an RP-LC retention time of 997 s.
For CCCCn1c(=O)c2ccccc2n(Cc2nc(-c3ccc(Cl)c(F)c3)no2)c1=O, the RP-LC retention time was 1110 s.
C#CCOCC1CCN(S(=O)(=O)c2ccccc2)CC1 showed an RP-LC retention time of 866 s.
With CCOC(=O)CCNC(=O)N1c2ccccc2CC1c1nc(C2CC2)no1 (stereo not drawn) the RP-LC retention time was 853 s.
CCOCC(=O)N1CCC2(CCC2O)CC1 (stereo not drawn) gave an RP-LC retention time of 598 s.
Molecule Cc1cccc(C2CN(C)CCc3c2cc(O)c(O)c3Cl)c1 (stereo not drawn) has an RP-LC retention time of 648 s.
C#CCOCC1CCCN(S(=O)(=O)Cc2ccccc2)C1 (stereo not drawn) gave an RP-LC retention time of 840 s.
With O=C(NCc1cc(F)ccc1F)C1CCCN(c2cnc3nccnc3c2)C1 (stereo not drawn) the RP-LC retention time was 715 s.
CCCN1C(=O)CN(S(=O)(=O)c2ccccc2)CC1(C)C(=O)NCc1ccc(F)cc1 (stereo not drawn) gave an RP-LC retention time of 827 s.
COc1ccccc1N1CCN(S(=O)(=O)CCNC(=O)CCCc2ccccc2)CC1 gave an RP-LC retention time of 832 s.
In the case of CCC(C(=O)NCc1ccc2c(c1)OCO2)n1ccc2cc(S(=O)(=O)N3CCCCC3)ccc21 (stereo not drawn), the RP-LC retention time is reported as 1020 s.
COc1cccc(N2C=C(C(=O)N3CCCC3)S(=O)(=O)c3ccccc32)c1 showed an RP-LC retention time of 770 s.
Cc1ccccc1NC(=O)Nc1c(-c2ccccc2)nc2ccccn12 showed an RP-LC retention time of 661 s.
In the case of O=C(Nc1ccc(-c2nc3ccccc3[nH]2)cc1)c1cccs1, the RP-LC retention time is reported as 579 s.
In the case of Cc1cc(N2CCN(C)CC2)n2nc(CN3CCN(c4cccc(Cl)c4)CC3)nc2n1, the RP-LC retention time is reported as 568 s.
With COc1cccc(-c2noc(C3CCCN3C(=O)Nc3ccc(OC)c(OC)c3)n2)c1 (stereo not drawn) the RP-LC retention time was 855 s.
With CCC(C)C(NC(=O)c1cccc(F)c1)C(=O)Nc1nc2ccccc2[nH]1 (stereo not drawn) the RP-LC retention time was 748 s.
Molecule Cc1cc(C)cc(NC(=O)N2CCN(c3cnn4c(C)nnc4c3)CC2)c1 has an RP-LC retention time of 634 s.
With CCn1ccc2sc(C)c(C(=O)NCc3cccs3)c2c1=O the RP-LC retention time was 772 s.
Molecule CCN(CC)C(=O)N1CCC(c2noc(-c3ccccc3)n2)C1 (stereo not drawn) has an RP-LC retention time of 892 s.
O=C(COc1ccccc1F)NCCn1nc(-c2ccco2)ccc1=O gave an RP-LC retention time of 675 s.

Reference: the METLIN SMRT retention time set (Domingo-Almenara et al. 2019)
